Measurements reported in PubChem BioAssay (NCI).
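GI50 is the concentration that inhibits growth by half. TGI: concentration producing complete growth inhibition.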

Assays:
Assay in all cases: NCI-60 cell line screen, 384-well format
[1] = tested on: 786-0 renal
[2] = tested on: A498 renal
[3] = tested on: A549 NSCLC
[4] = tested on: ACHN renal
[5] = tested on: BT-549 breast
[6] = tested on: CAKI-1 renal
[7] = tested on: CCRF-CEM leukemia
[8] = tested on: COLO 205 colon
[9] = tested on: DU-145 prostate
[10] = tested on: EKVX NSCLC
[11] = tested on: HCC-2998 colon
[12] = tested on: HCT-116 colon
[13] = tested on: HCT-15 colon
[14] = tested on: HL-60(TB) leukemia
[15] = tested on: HOP-62 NSCLC
[16] = tested on: HOP-92 NSCLC
[17] = tested on: HS 578T breast
[18] = tested on: IGROV1 ovarian
[19] = tested on: K-562 leukemia
[20] = tested on: KM12 colon
[21] = tested on: LOX IMVI melanoma
[22] = tested on: M14 melanoma
[23] = tested on: MALME-3M melanoma
[24] = tested on: MDA-MB-231 breast
[25] = tested on: MDA-MB-435 melanoma
[26] = tested on: MDA-MB-468 breast
[27] = tested on: MOLT-4 leukemia
[28] = tested on: NCI-H226 lung
[29] = tested on: NCI-H23 lung
[30] = tested on: NCI-H322M lung
[31] = tested on: NCI-H460 NSCLC
[32] = tested on: NCI-H522 lung
[33] = tested on: NCI/ADR-RES ovarian
[34] = tested on: OVCAR-3 ovarian
[35] = tested on: OVCAR-4 ovarian
[36] = tested on: OVCAR-5 ovarian
[37] = tested on: OVCAR-8 ovarian
[38] = tested on: PC-3 prostate
[39] = tested on: RPMI-8226 leukemia
[40] = tested on: RXF 393 renal
[41] = tested on: SF-268 CNS
[42] = tested on: SF-295 CNS
[43] = tested on: SF-539 CNS
[44] = tested on: SK-MEL-2 melanoma
[45] = tested on: SK-MEL-28 melanoma
[46] = tested on: SK-MEL-5 melanoma
[47] = tested on: SK-OV-3 ovarian
[48] = tested on: SN12C renal
[49] = tested on: SNB-19 CNS
[50] = tested on: SNB-75 CNS
[51] = tested on: SR leukemia
[52] = tested on: SW-620 colon
[53] = tested on: T-47D breast
[54] = tested on: TK-10 renal
[55] = tested on: U251 glioblastoma
[56] = tested on: UACC-257 melanoma
[57] = tested on: UACC-62 melanoma
[58] = tested on: UO-31 renal

## CC[C@@]1(O)C(=O)OCc2c1cc1n(c2=O)Cc2c-1nc1cc(F)c(C)c3c1c2[C@@H](NC(=O)CO)CC3
[1]
  GI50: < 10 nM
  TGI: 10.1 nM
[2]
  GI50: < 10 nM
  TGI: 142 nM
[3]
  GI50: 49.8 nM
  TGI: 944 nM
[4]
  GI50: < 10 nM
  TGI: 11.1 nM
[5]
  GI50: < 10 nM
  TGI: 40.2 nM
[6]
  GI50: < 10 nM
  TGI: 103 nM
[7]
  GI50: < 10 nM
  TGI: < 10 nM
[8]
  GI50: < 10 nM
  TGI: 537 nM
[9]
  GI50: < 10 nM
  TGI: < 10 nM
[10]
  GI50: 42.9 nM
  TGI: 2650 nM
[11]
  GI50: 15.6 nM
  TGI: 212 nM
[12]
  GI50: < 10 nM
  TGI: 159 nM
[13]
  GI50: 17.5 nM
  TGI: 1180 nM
[14]
  GI50: < 10 nM
  TGI: < 10 nM
[15]
  GI50: < 10 nM
  TGI: < 10 nM
[16]
  GI50: < 10 nM
  TGI: 58.9 nM
[17]
  GI50: < 10 nM
  TGI: 2360 nM
[18]
  GI50: 12.8 nM
  TGI: 1140 nM
[19]
  GI50: < 10 nM
  TGI: 171 nM
[20]
  GI50: 11.6 nM
  TGI: 149 nM
[21]
  GI50: < 10 nM
  TGI: 37.5 nM
[22]
  GI50: < 10 nM
  TGI: 12.8 nM
[23]
  GI50: < 10 nM
  TGI: 237 nM
[24]
  GI50: 99.6 nM
  TGI: 1520 nM
[25]
  GI50: 24.3 nM
  TGI: 467 nM
[26]
  GI50: < 10 nM
  TGI: < 10 nM
[27]
  GI50: < 10 nM
  TGI: < 10 nM
[28]
  GI50: < 10 nM
  TGI: 49.6 nM
[29]
  GI50: < 10 nM
  TGI: < 10 nM
[30]
  GI50: 54.2 nM
  TGI: 684 nM
[31]
  GI50: < 10 nM
  TGI: 23.4 nM
[32]
  GI50: < 10 nM
  TGI: 19 nM
[33]
  GI50: 53.6 nM
  TGI: 256 nM
[34]
  GI50: < 10 nM
  TGI: 38.4 nM
[35]
  GI50: 131 nM
  TGI: 419 nM
[36]
  GI50: 35.2 nM
  TGI: 268 nM
[37]
  GI50: < 10 nM
  TGI: 104 nM
[38]
  GI50: 97.3 nM
  TGI: 3880 nM
[39]
  GI50: < 10 nM
  TGI: 20.6 nM
[40]
  GI50: < 10 nM
  TGI: < 10 nM
[41]
  GI50: < 10 nM
  TGI: < 10 nM
[42]
  GI50: < 10 nM
  TGI: < 10 nM
[43]
  GI50: < 10 nM
  TGI: 15.6 nM
[44]
  GI50: 33.1 nM
  TGI: 105 nM
[45]
  GI50: < 10 nM
  TGI: 270 nM
[46]
  GI50: < 10 nM
  TGI: 16.4 nM
[47]
  GI50: < 10 nM
  TGI: 28.1 nM
[48]
  GI50: < 10 nM
  TGI: < 10 nM
[49]
  GI50: < 10 nM
  TGI: 12.7 nM
[50]
  GI50: < 10 nM
  TGI: 10.8 nM
[51]
  GI50: < 10 nM
  TGI: < 10 nM
[52]
  GI50: < 10 nM
  TGI: 223 nM
[53]
  GI50: < 10 nM
  TGI: 101 nM
[54]
  GI50: 47.6 nM
  TGI: 1660 nM
[55]
  GI50: < 10 nM
  TGI: 13.6 nM
[56]
  GI50: 19.4 nM
  TGI: 226 nM
[57]
  GI50: < 10 nM
  TGI: < 10 nM
[58]
  GI50: 20.6 nM
  TGI: 116 nM
